Data set [1] in a line: Drug uptake in mouse brain at 0.3 mg/kg, po after 30 mins. It is filed as ADME, organism-based. The following applies: read-out: Drug uptake.
The nature of data set [2]: Plasma concentration in mouse at 0.3 mg/kg, po after 30 mins. It counts as ADME, organism-based.

The structures appear in SMILES notation.

On to `c1ccc(-c2cc(NC3=NC[C@@]4(CN5CCC4CC5)O3)ncn2)cc1`, for which the concentration at 0.5 h came out at 81 nM in data set [1] and 273 nM in data set [2].
